{"source": "patent US20260285850A1", "about": "“SUBSTITUTED OXAZOLIDINONES AND IMIDAZOLINONES AS HERBICIDES” (FMC CORPORATION, priority 2023, published 2026)", "assay_type_in_all_cases": "in vivo", "key": {"[1]": {"system": "barnyardgrass (Echinochloa crus-galli)", "assay": "Test A preemergence soil spray, visual injury rating 0-100", "details": "10 days, 0 = no effect, 100 = complete control", "description": "(§1) Seeds of plant species selected from barnyardgrass (Echinochloa crus-galli), blackgrass (Alopecurus myosuroides), corn (Zea mays), foxtail, giant (giant foxtail, Setaria faberi), green foxtail (Setaria viridis), goosegrass (Eleusine indica), kochia (Bassia scoparia), oat, wild (wild oat, Avena fatua), palmer (palmer amaranth, palmer pigweed, Amaranthus palmeri), ragweed (common ragweed, Ambrosia artemisiifolia), ryegrass, Italian (italian ryegrass, Lolium multiflorum), soybean (Glycine max) and wheat (Triticum aestivum) were planted into a blend of loam soil and sand and treated preemergence with a directed soil spray using test chemicals formulated in a non-phytotoxic solvent mixture which included a surfactant.\n(§2) At the same time, plants selected from these crops and weed species and also galium (catchweed bedstraw, Galium aparine) and horseweed (Erigeron canadensis) were planted in pots containing the same blend of loam soil and sand and treated with postemergence applications of test chemicals formulated in the same manner. Plants ranged in height from 2 to 10 cm and were in the one- to two-leaf stage for the postemergence treatment. Treated plants and untreated controls were maintained in a greenhouse for 10 days, after which time all treated plants were compared to untreated controls and visually evaluated for injury. Plant response ratings, summarized in Table A, are based on a 0 to 100 scale where 0 is no effect and 100 is complete control. A dash (-) response means no test result."}, "[2]": {"system": "blackgrass (Alopecurus myosuroides)", "assay": "Test A preemergence soil spray, visual injury rating 0-100", "details": "10 days, 0 = no effect, 100 = complete control", "description": "as §1, §2"}, "corn (Zea mays) [3]": {"system": "corn (Zea mays)", "assay": "Test A preemergence soil spray, visual injury rating 0-100", "details": "10 days, 0 = no effect, 100 = complete control", "description": "as §1, §2"}, "[4]": {"system": "green foxtail (Setaria viridis)", "assay": "Test A preemergence soil spray, visual injury rating 0-100", "details": "10 days, 0 = no effect, 100 = complete control", "description": "as §1, §2"}, "kochia (Bassia scoparia) [5]": {"system": "kochia (Bassia scoparia)", "assay": "Test A preemergence soil spray, visual injury rating 0-100", "details": "10 days, 0 = no effect, 100 = complete control", "description": "as §1, §2"}, "[6]": {"system": "oat, wild (wild oat, Avena fatua)", "assay": "Test A preemergence soil spray, visual injury rating 0-100", "details": "10 days, 0 = no effect, 100 = complete control", "description": "as §1, §2"}, "[7]": {"system": "palmer (palmer amaranth, palmer pigweed, Amaranthus palmeri)", "assay": "Test A preemergence soil spray, visual injury rating 0-100", "details": "10 days, 0 = no effect, 100 = complete control", "description": "as §1, §2"}, "[8]": {"system": "ragweed (common ragweed, Ambrosia artemisiifolia)", "assay": "Test A preemergence soil spray, visual injury rating 0-100", "details": "10 days, 0 = no effect, 100 = complete control", "description": "as §1, §2"}, "[9]": {"system": "ryegrass, Italian (italian ryegrass, Lolium multiflorum)", "assay": "Test A preemergence soil spray, visual injury rating 0-100", "details": "10 days, 0 = no effect, 100 = complete control", "description": "as §1, §2"}, "soybean (Glycine max) [10]": {"system": "soybean (Glycine max)", "assay": "Test A preemergence soil spray, visual injury rating 0-100", "details": "10 days, 0 = no effect, 100 = complete control", "description": "as §1, §2"}, "[11]": {"system": "wheat (Triticum aestivum)", "assay": "Test A preemergence soil spray, visual injury rating 0-100", "details": "10 days, 0 = no effect, 100 = complete control", "description": "as §1, §2"}, "[12]": {"system": "barnyardgrass (Echinochloa crus-galli)", "assay": "Test A postemergence application, visual injury rating 0-100", "details": "10 days", "description": "as §1, §2"}, "[13]": {"system": "blackgrass (Alopecurus myosuroides)", "assay": "Test A postemergence application, visual injury rating 0-100", "details": "10 days", "description": "as §1, §2"}, "corn (Zea mays) [14]": {"system": "corn (Zea mays)", "assay": "Test A postemergence application, visual injury rating 0-100", "details": "10 days", "description": "as §1, §2"}, "[15]": {"system": "green foxtail (Setaria viridis)", "assay": "Test A postemergence application, visual injury rating 0-100", "details": "10 days", "description": "as §1, §2"}, "[16]": {"system": "horseweed (Erigeron canadensis)", "assay": "Test A postemergence application, visual injury rating 0-100", "details": "10 days", "description": "as §1, §2"}, "kochia (Bassia scoparia) [17]": {"system": "kochia (Bassia scoparia)", "assay": "Test A postemergence application, visual injury rating 0-100", "details": "10 days", "description": "as §1, §2"}, "[18]": {"system": "oat, wild (wild oat, Avena fatua)", "assay": "Test A postemergence application, visual injury rating 0-100", "details": "10 days", "description": "as §1, §2"}, "[19]": {"system": "palmer (palmer amaranth, palmer pigweed, Amaranthus palmeri)", "assay": "Test A postemergence application, visual injury rating 0-100", "details": "10 days", "description": "as §1, §2"}, "[20]": {"system": "ragweed (common ragweed, Ambrosia artemisiifolia)", "assay": "Test A postemergence application, visual injury rating 0-100", "details": "10 days", "description": "as §1, §2"}, "[21]": {"system": "ryegrass, Italian (italian ryegrass, Lolium multiflorum)", "assay": "Test A postemergence application, visual injury rating 0-100", "details": "10 days", "description": "as §1, §2"}, "soybean (Glycine max) [22]": {"system": "soybean (Glycine max)", "assay": "Test A postemergence application, visual injury rating 0-100", "details": "10 days", "description": "as §1, §2"}, "[23]": {"system": "wheat (Triticum aestivum)", "assay": "Test A postemergence application, visual injury rating 0-100", "details": "10 days", "description": "as §1, §2"}, "[24]": {"details": "31 g ai/ha, postemergence, 0 = no effect, 100 = complete control"}, "[25]": {"details": "Postemergence, 125 g ai/ha, 0 is no effect, 100 is complete control"}}, "data": [{"compound": "CONC(=O)C1CC(NC(=O)C2(C)CN(c3cc(F)cc(F)c3)C(=O)O2)CO1", "note": "(stereo not shown) [Compound 40]", "values": [{"measurement": "Barnyardgrass plant response rating (0-100)", "setting": "[1]; 31 g ai/ha", "value": 0}, {"measurement": "Barnyardgrass plant response rating (0 to 100 scale)", "setting": "[1]; 125 g ai/ha", "value": 30}, {"measurement": "Blackgrass plant response rating (0-100)", "setting": "[2]; 31 g ai/ha", "value": 50}, {"measurement": "Blackgrass plant response rating (0 to 100 scale)", "setting": "[2]; 125 g ai/ha", "value": 80}, {"measurement": "Corn plant response rating (0-100)", "setting": "corn (Zea mays) [3]; 31 g ai/ha", "value": 0}, {"measurement": "Corn plant response rating (0 to 100 scale)", "setting": "corn (Zea mays) [3]; 125 g ai/ha", "value": 0}, {"measurement": "Foxtail, Green plant response rating (0-100)", "setting": "[4]; 31 g ai/ha", "value": 0}, {"measurement": "Foxtail, Green plant response rating (0 to 100 scale)", "setting": "[4]; 125 g ai/ha", "value": 20}, {"measurement": "Kochia plant response rating (0-100)", "setting": "kochia (Bassia scoparia) [5]; 31 g ai/ha", "value": 0}, {"measurement": "Kochia plant response rating (0 to 100 scale)", "setting": "kochia (Bassia scoparia) [5]; 125 g ai/ha", "value": 0}, {"measurement": "Oat, Wild plant response rating (0-100)", "setting": "[6]; 31 g ai/ha", "value": 50}, {"measurement": "Oat, Wild plant response rating (0 to 100 scale)", "setting": "[6]; 125 g ai/ha", "value": 90}, {"measurement": "Amaranth, Palmer plant response rating (0-100)", "setting": "[7]; 31 g ai/ha", "value": 0}, {"measurement": "Amaranth, Palmer plant response rating (0 to 100 scale)", "setting": "[7]; 125 g ai/ha", "value": 0}, {"measurement": "Ragweed plant response rating (0-100)", "setting": "[8]; 31 g ai/ha", "value": 0}, {"measurement": "Ragweed plant response rating (0 to 100 scale)", "setting": "[8]; 125 g ai/ha", "value": 0}, {"measurement": "Ryegrass, Italian plant response rating (0-100)", "setting": "[9]; 31 g ai/ha", "value": 20}, {"measurement": "Ryegrass, Italian plant response rating (0 to 100 scale)", "setting": "[9]; 125 g ai/ha", "value": 90}, {"measurement": "Soybean plant response rating (0-100)", "setting": "soybean (Glycine max) [10]; 31 g ai/ha", "value": 0}, {"measurement": "Soybean plant response rating (0 to 100 scale)", "setting": "soybean (Glycine max) [10]; 125 g ai/ha", "value": 10}, {"measurement": "Wheat plant response rating (0-100)", "setting": "[11]; 31 g ai/ha", "value": 50}, {"measurement": "Wheat plant response rating (0 to 100 scale)", "setting": "[11]; 125 g ai/ha", "value": 90}, {"measurement": "Barnyardgrass plant response rating (0-100)", "setting": "[12]; [24]", "value": 10}, {"measurement": "Barnyardgrass plant response rating (0 to 100 scale)", "setting": "[12]; [25]", "value": 100}, {"measurement": "Blackgrass plant response rating (0-100)", "setting": "[13]; [24]", "value": 100}, {"measurement": "Blackgrass plant response rating (0 to 100 scale)", "setting": "[13]; [25]", "value": 100}, {"measurement": "Corn plant response rating (0-100)", "setting": "corn (Zea mays) [14]; [24]", "value": 20}, {"measurement": "Corn plant response rating (0 to 100 scale)", "setting": "corn (Zea mays) [14]; [25]", "value": 100}, {"measurement": "Foxtail, Green plant response rating (0-100)", "setting": "[15]; [24]", "value": 0}, {"measurement": "Foxtail, Green plant response rating (0 to 100 scale)", "setting": "[15]; [25]", "value": 90}, {"measurement": "Horseweed plant response rating (0-100)", "setting": "[16]; [24]", "value": 30}, {"measurement": "Horseweed plant response rating (0 to 100 scale)", "setting": "[16]; [25]", "value": 0}, {"measurement": "Kochia plant response rating (0-100)", "setting": "kochia (Bassia scoparia) [17]; [24]", "value": 0}, {"measurement": "Kochia plant response rating (0 to 100 scale)", "setting": "kochia (Bassia scoparia) [17]; [25]", "value": 70}, {"measurement": "Oat, Wild plant response rating (0-100)", "setting": "[18]; [24]", "value": 90}, {"measurement": "Oat, Wild plant response rating (0 to 100 scale)", "setting": "[18]; [25]", "value": 90}, {"measurement": "Amaranth, Palmer plant response rating (0-100)", "setting": "[19]; [24]", "value": 0}, {"measurement": "Amaranth, Palmer / Pigweed, Palmer plant response rating (0 to 100 scale)", "setting": "[19]; [25]", "value": 30}, {"measurement": "Ragweed plant response rating (0-100)", "setting": "[20]; [24]", "value": 0}, {"measurement": "Ragweed plant response rating (0 to 100 scale)", "setting": "[20]; [25]", "value": 20}, {"measurement": "Ryegrass, Italian plant response rating (0-100)", "setting": "[21]; [24]", "value": 20}, {"measurement": "Ryegrass, Italian plant response rating (0 to 100 scale)", "setting": "[21]; [25]", "value": 60}, {"measurement": "Soybean plant response rating (0-100)", "setting": "soybean (Glycine max) [22]; [24]", "value": 0}, {"measurement": "Soybean plant response rating (0 to 100 scale)", "setting": "soybean (Glycine max) [22]; [25]", "value": 60}, {"measurement": "Wheat plant response rating (0-100)", "setting": "[23]; [24]", "value": 70}, {"measurement": "Wheat plant response rating (0 to 100 scale)", "setting": "[23]; [25]", "value": 80}]}]}
